PubChem BioAssay (NCI)
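Five compound concentrations were applied to cells in 96-well plates for 48 hours; endpoints were derived by simple linear interpolation of the resulting dose-response curve. The concentration for 50% growth inhibition is given as GI50. TGI: concentration producing complete growth inhibition.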

Key:
Assay in all cases: inhibition of tumour cell growth, NCI panel, 48 h
SF-295 CNS = tested on: SF-295 CNS
HCC-2998 colon = tested on: HCC-2998 colon
KM12 colon = tested on: KM12 colon
BT-549 breast = tested on: BT-549 breast
SNB-75 CNS = tested on: SNB-75 CNS
TK-10 renal = tested on: TK-10 renal
EKVX NSCLC = tested on: EKVX NSCLC
SK-MEL-5 melanoma = tested on: SK-MEL-5 melanoma
K-562 leukemia = tested on: K-562 leukemia
SW-620 colon = tested on: SW-620 colon
RXF 393 renal = tested on: RXF 393 renal
CAKI-1 renal = tested on: CAKI-1 renal
SNB-19 CNS = tested on: SNB-19 CNS
DU-145 prostate = tested on: DU-145 prostate
HCT-15 colon = tested on: HCT-15 colon
HOP-62 NSCLC = tested on: HOP-62 NSCLC
HCT-116 colon = tested on: HCT-116 colon
MDA-MB-231 breast = tested on: MDA-MB-231 breast
NCI-H522 lung = tested on: NCI-H522 lung
T-47D breast = tested on: T-47D breast
UACC-62 melanoma = tested on: UACC-62 melanoma
ACHN renal = tested on: ACHN renal
U251 CNS = tested on: U251 CNS
M14 melanoma = tested on: M14 melanoma
OVCAR-8 ovarian = tested on: OVCAR-8 ovarian
NCI-H23 lung = tested on: NCI-H23 lung
LOX IMVI melanoma = tested on: LOX IMVI melanoma
SK-MEL-2 melanoma = tested on: SK-MEL-2 melanoma
NCI-H226 lung = tested on: NCI-H226 lung
IGROV1 ovarian = tested on: IGROV1 ovarian
SK-MEL-28 melanoma = tested on: SK-MEL-28 melanoma
OVCAR-3 ovarian = tested on: OVCAR-3 ovarian
MDA-MB-435 = tested on: MDA-MB-435
HS 578T breast = tested on: HS 578T breast
MCF7 breast = tested on: MCF7 breast
SF-539 CNS = tested on: SF-539 CNS
OVCAR-4 ovarian = tested on: OVCAR-4 ovarian
A498 renal = tested on: A498 renal
UO-31 renal = tested on: UO-31 renal
COLO 205 colon = tested on: COLO 205 colon
SN12C renal = tested on: SN12C renal
OVCAR-5 ovarian = tested on: OVCAR-5 ovarian
PC-3 prostate = tested on: PC-3 prostate
SF-268 CNS = tested on: SF-268 CNS
UACC-257 melanoma = tested on: UACC-257 melanoma
HT29 colon = tested on: HT29 colon
SK-OV-3 ovarian = tested on: SK-OV-3 ovarian
MOLT-4 leukemia = tested on: MOLT-4 leukemia
A549 NSCLC = tested on: A549 NSCLC
CCRF-CEM leukemia = tested on: CCRF-CEM leukemia
RPMI-8226 leukemia = tested on: RPMI-8226 leukemia
786-0 renal = tested on: 786-0 renal
NCI-H460 lung = tested on: NCI-H460 lung
MALME-3M melanoma = tested on: MALME-3M melanoma
HOP-92 NSCLC = tested on: HOP-92 NSCLC
SR leukemia = tested on: SR leukemia

SMILES: Nc1c([N+](=O)[O-])ncn1C1OC(CO)C(O)C1O (configuration not stated)
- GI50 (SF-295 CNS): > 100 µM
- TGI (SF-295 CNS): > 100 µM
- GI50 (HCC-2998 colon): > 100 µM
- TGI (HCC-2998 colon): > 100 µM
- GI50 (KM12 colon): > 100 µM
- TGI (KM12 colon): > 100 µM
- GI50 (BT-549 breast): > 100 µM
- TGI (BT-549 breast): > 100 µM
- GI50 (SNB-75 CNS): > 100 µM
- TGI (SNB-75 CNS): > 100 µM
- GI50 (TK-10 renal): > 100 µM
- TGI (TK-10 renal): > 100 µM
- GI50 (EKVX NSCLC): > 100 µM
- TGI (EKVX NSCLC): > 100 µM
- GI50 (SK-MEL-5 melanoma): > 100 µM
- TGI (SK-MEL-5 melanoma): > 100 µM
- GI50 (K-562 leukemia): > 100 µM
- TGI (K-562 leukemia): > 100 µM
- GI50 (SW-620 colon): > 100 µM
- TGI (SW-620 colon): > 100 µM
- GI50 (RXF 393 renal): > 100 µM
- TGI (RXF 393 renal): > 100 µM
- GI50 (CAKI-1 renal): > 100 µM
- TGI (CAKI-1 renal): > 100 µM
- GI50 (SNB-19 CNS): > 100 µM
- TGI (SNB-19 CNS): > 100 µM
- GI50 (DU-145 prostate): > 100 µM
- TGI (DU-145 prostate): > 100 µM
- GI50 (HCT-15 colon): > 100 µM
- TGI (HCT-15 colon): > 100 µM
- GI50 (HOP-62 NSCLC): > 100 µM
- TGI (HOP-62 NSCLC): > 100 µM
- GI50 (HCT-116 colon): > 100 µM
- TGI (HCT-116 colon): > 100 µM
- GI50 (MDA-MB-231 breast): > 100 µM
- TGI (MDA-MB-231 breast): > 100 µM
- GI50 (NCI-H522 lung): > 100 µM
- TGI (NCI-H522 lung): > 100 µM
- GI50 (T-47D breast): > 100 µM
- TGI (T-47D breast): > 100 µM
- GI50 (UACC-62 melanoma): > 100 µM
- TGI (UACC-62 melanoma): > 100 µM
- GI50 (ACHN renal): > 100 µM
- TGI (ACHN renal): > 100 µM
- GI50 (U251 CNS): > 100 µM
- TGI (U251 CNS): > 100 µM
- GI50 (M14 melanoma): > 100 µM
- TGI (M14 melanoma): > 100 µM
- GI50 (OVCAR-8 ovarian): > 100 µM
- TGI (OVCAR-8 ovarian): > 100 µM
- GI50 (NCI-H23 lung): > 100 µM
- TGI (NCI-H23 lung): > 100 µM
- GI50 (LOX IMVI melanoma): > 100 µM
- TGI (LOX IMVI melanoma): > 100 µM
- GI50 (SK-MEL-2 melanoma): > 100 µM
- TGI (SK-MEL-2 melanoma): > 100 µM
- GI50 (NCI-H226 lung): > 100 µM
- TGI (NCI-H226 lung): > 100 µM
- GI50 (IGROV1 ovarian): > 100 µM
- TGI (IGROV1 ovarian): > 100 µM
- GI50 (SK-MEL-28 melanoma): > 100 µM
- TGI (SK-MEL-28 melanoma): > 100 µM
- GI50 (OVCAR-3 ovarian): > 100 µM
- TGI (OVCAR-3 ovarian): > 100 µM
- GI50 (MDA-MB-435): > 100 µM
- TGI (MDA-MB-435): > 100 µM
- GI50 (HS 578T breast): > 100 µM
- TGI (HS 578T breast): > 100 µM
- GI50 (MCF7 breast): > 100 µM
- TGI (MCF7 breast): > 100 µM
- GI50 (SF-539 CNS): > 100 µM
- TGI (SF-539 CNS): > 100 µM
- GI50 (OVCAR-4 ovarian): > 100 µM
- TGI (OVCAR-4 ovarian): > 100 µM
- GI50 (A498 renal): > 100 µM
- TGI (A498 renal): > 100 µM
- GI50 (UO-31 renal): > 100 µM
- TGI (UO-31 renal): > 100 µM
- GI50 (COLO 205 colon): > 100 µM
- TGI (COLO 205 colon): > 100 µM
- GI50 (SN12C renal): > 100 µM
- TGI (SN12C renal): > 100 µM
- GI50 (OVCAR-5 ovarian): > 100 µM
- TGI (OVCAR-5 ovarian): > 100 µM
- GI50 (PC-3 prostate): > 100 µM
- TGI (PC-3 prostate): > 100 µM
- GI50 (SF-268 CNS): > 100 µM
- TGI (SF-268 CNS): > 100 µM
- GI50 (UACC-257 melanoma): > 100 µM
- TGI (UACC-257 melanoma): > 100 µM
- GI50 (HT29 colon): > 100 µM
- TGI (HT29 colon): > 100 µM
- GI50 (SK-OV-3 ovarian): > 100 µM
- TGI (SK-OV-3 ovarian): > 100 µM
- GI50 (MOLT-4 leukemia): > 100 µM
- TGI (MOLT-4 leukemia): > 100 µM
- GI50 (A549 NSCLC): > 100 µM
- TGI (A549 NSCLC): > 100 µM
- GI50 (CCRF-CEM leukemia): > 100 µM
- TGI (CCRF-CEM leukemia): > 100 µM
- GI50 (RPMI-8226 leukemia): > 100 µM
- TGI (RPMI-8226 leukemia): > 100 µM
- GI50 (786-0 renal): > 100 µM
- TGI (786-0 renal): > 100 µM
- GI50 (NCI-H460 lung): > 100 µM
- TGI (NCI-H460 lung): > 100 µM

SMILES: c1ccc2c(c1)ccc1cc3cc(NCCCCNc4ccc5nc6c(ccc7ccccc76)cc5c4)ccc3nc12
- TGI (SF-295 CNS): 3.03 µM
- TGI (KM12 colon): 0.532 µM
- TGI (BT-549 breast): 4.06 µM
- TGI (TK-10 renal): 3.18 µM
- TGI (SK-MEL-5 melanoma): 2.67 µM
- TGI (K-562 leukemia): 3.55 µM
- TGI (SW-620 colon): 0.405 µM
- TGI (CAKI-1 renal): 3.54 µM
- TGI (MALME-3M melanoma): 3.16 µM
- TGI (DU-145 prostate): 2.67 µM
- TGI (HCT-15 colon): 2.01 µM
- TGI (MDA-MB-231 breast): 0.348 µM
- TGI (UACC-62 melanoma): 3.04 µM
- TGI (ACHN renal): 2.68 µM
- TGI (U251 CNS): 0.374 µM
- TGI (M14 melanoma): 3.29 µM
- TGI (OVCAR-8 ovarian): 0.303 µM
- TGI (LOX IMVI melanoma): 3.43 µM
- TGI (NCI-H226 lung): 3.24 µM
- TGI (IGROV1 ovarian): 2.99 µM
- TGI (OVCAR-3 ovarian): 4.06 µM
- TGI (MDA-MB-435): 3.45 µM
- TGI (HS 578T breast): 4.25 µM
- TGI (SF-539 CNS): 2.88 µM
- TGI (HOP-92 NSCLC): 4.09 µM
- TGI (A498 renal): 2.43 µM
- TGI (SN12C renal): 2.7 µM
- TGI (PC-3 prostate): 2.67 µM
- TGI (SR leukemia): 0.043 µM
- TGI (UACC-257 melanoma): 3.11 µM
- TGI (SK-OV-3 ovarian): 6.34 µM
- TGI (MOLT-4 leukemia): 0.418 µM
- TGI (A549 NSCLC): 2.84 µM
- TGI (CCRF-CEM leukemia): 2.29 µM
- TGI (RPMI-8226 leukemia): 1.48 µM
- TGI (NCI-H460 lung): 0.53 µM
